Source: the supplement of paper PMC10307832

Legend:
Experiment in all cases: relative viability (nuclei count vs DMSO), 5 days (fraction); higher = more cells survive
IPA-3 + Foretinib = compound: C1=CC=C2C(=C1)C=CC(=C2SSC3=C(C=CC4=CC=CC=C43)O)O [IPA-3] + COc1cc2c(Oc3ccc(NC(=O)C4(C(=O)Nc5ccc(F)cc5)CC4)cc3F)ccnc2cc1OCCCN1CCOCC1 [Foretinib] (partner 0.25 µM)
Procedure, shortened: (§1)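 Relative viability divides the nuclei count in treated wells by that in vehicle wells. Lung cancer cell lines were seeded in 1536-well plates, dosed by pin tool the next day, and fixed and stained after 5 days in one step with final 0.05% Triton X-100, 1% formaldehyde and 1 ug/ml Hoechst. Dosing was a single drug or a fixed anchor-drug dose plus five library-drug doses (not always all listed) in √10 steps, and values are medians of duplicate plates imaged at 4×.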

IPA-3 + Dasatinib = compound: C1=CC=C2C(=C1)C=CC(=C2SSC3=C(C=CC4=CC=CC=C43)O)O [IPA-3] + Cc1nc(Nc2ncc(C(=O)Nc3c(C)cccc3Cl)s2)cc(N2CCN(CCO)CC2)n1 [Dasatinib] (partner 0.075 µM)
Procedure, shortened: as §1

IPA-3 + Navitoclax = compound: C1=CC=C2C(=C1)C=CC(=C2SSC3=C(C=CC4=CC=CC=C43)O)O [IPA-3] + CC1(C)CCC(c2ccc(Cl)cc2)=C(CN2CCN(c3ccc(C(=O)NS(=O)(=O)c4ccc(N[C@H](CCN5CCOCC5)CSc5ccccc5)c(S(=O)(=O)C(F)(F)F)c4)cc3)CC2)C1 [Navitoclax] (partner 0.5 µM)
Procedure, shortened: as §1

Doramapimod + Crizotinib = compound: Cc1ccc(-n2nc(C(C)(C)C)cc2NC(=O)Nc2ccc(OCCN3CCOCC3)c3ccccc23)cc1 [Doramapimod] + C[C@@H](Oc1cc(-c2cnn(C3CCNCC3)c2)cnc1N)c1c(Cl)ccc(F)c1Cl [Crizotinib] (partner 1 µM)
Procedure, shortened: as §1

UMC-11 was tested, and the relative viability (IPA-3 + Foretinib; first compound 0.2 µM) was 1.11, the relative viability (IPA-3 + Foretinib; first compound 0.6325 µM) was 0.983 and the relative viability (IPA-3 + Foretinib; first compound 2 µM) was 1.08. It also gave a relative viability (IPA-3 + Foretinib; first compound 6.325 µM) of 1, a relative viability (IPA-3 + Foretinib; first compound 20 µM) of 1.25 and a relative viability (IPA-3 + Dasatinib; first compound 0.2 µM) of 0.605. The relative viability (IPA-3 + Dasatinib; first compound 0.6325 µM) was 0.421, the relative viability (IPA-3 + Dasatinib; first compound 2 µM) was 0.483 and the relative viability (IPA-3 + Dasatinib; first compound 6.325 µM) was 0.446. For the same cell line, the relative viability (IPA-3 + Dasatinib; first compound 20 µM) was 0.489, the relative viability (IPA-3 + Navitoclax; first compound 0.2 µM) was 0.319 and the relative viability (IPA-3 + Navitoclax; first compound 0.6325 µM) was 0.306. For the same cell line, the relative viability (IPA-3 + Navitoclax; first compound 2 µM) was 0.321, the relative viability (IPA-3 + Navitoclax; first compound 6.325 µM) was 0.367 and the relative viability (IPA-3 + Navitoclax; first compound 20 µM) was 0.462. For the same cell line, the relative viability (Doramapimod + Crizotinib; first compound 0.02 µM) was 0.58, the relative viability (Doramapimod + Crizotinib; first compound 0.06325 µM) was 0.623 and the relative viability (Doramapimod + Crizotinib; first compound 0.2 µM) was 0.608. For the same cell line, the relative viability (Doramapimod + Crizotinib; first compound 0.6325 µM) was 0.609 and the relative viability (Doramapimod + Crizotinib; first compound 2 µM) was 0.567.
